Measured values published in patent US20240358692A1, “TREATMENT OF SCLERODERMA” (Aisa Pharma, Inc., priority 2023, published 2024).

Key:
participants with SSc-RP [1] = experiment: SHAQ - Visual Analog Scale - Overall Disease Severity; type: in vivo, human
From the text: The standard, validated, patient reported outcome measures tool for SSc patients, the Scleroderma Health Assessment Questionnaire (SHAQ), will be used to assess the participant qualify of life. Details are attached in the Appendix. The participant quality of life will be scored, and a disability index calculated for each questionnaire completed by the patient at Screening and each in-clinic visit. The absolute change in participant quality of life from baseline to the end of each dosing period will be calculated similar to frequency data as before.
The standard, validated, patient reported outcome measures tool for SSc patients, the SHAQ, was collected at the time points specified in the study schedules (FIG. 2 and FIGS. 4A and 4B) to assess the participant's quality of life. The SHAQ included a Raynaud's VAS that will also be reported separately.

participants with SSc-RP [2] = experiment: Summary of data: dose response / overall response (Table S); type: in vivo, human; conditions: 20 mg dose group
[3] = cilnidipine given orally; cited from earlier work
[4] = Sensitivity Analysis (diagnosis of SSc), Modified ITT, Part A, Day 12, arms Cilnidipine 10 mg, Tadalafil 5 mg, Cilnidipine 10 mg + Tadalafil 5 mg
[5] = cilnidipine 10 mg (combination: + tadalafil 5 mg)
[6] = cilnidipine 20 mg (combination: + tadalafil 5 mg)

## COCCOC(=O)C1=C(C)NC(C)=C(C(=O)OC/C=C/c2ccccc2)C1c1cccc([N+](=O)[O-])c1 (centres unmarked) [Cilnidipine]
Participants with SSc-RP [1]; Pooled Cilnidipine, PP, Part A
  SHAQ VAS Overall Disease Severity, Change from Baseline, Q1: −1.850
  SHAQ VAS Overall Disease Severity, Change from Baseline, Q3: −0.950
  SHAQ VAS Overall Disease Severity, Day 12, Max: 5.20
  SHAQ VAS Overall Disease Severity, Day 12, Median: 1.300
  SHAQ VAS Overall Disease Severity, Day 12, Min: 0.00
  SHAQ VAS Overall Disease Severity, Day 12, Q1: 0.350
  SHAQ VAS Overall Disease Severity, Day 12, Q3: 1.650
  SHAQ VAS Overall Disease Severity, Percent Change from Baseline, Max: −26.8
  SHAQ VAS Overall Disease Severity, Percent Change from Baseline, Mean (SD): −61.10 (23.658)
  SHAQ VAS Overall Disease Severity, Percent Change from Baseline, Median: −60.00
  SHAQ VAS Overall Disease Severity, Percent Change from Baseline, Min: −100.0
  SHAQ VAS Overall Disease Severity, Percent Change from Baseline, Q1: −76.19
Participants with SSc-RP [1]; [4]
  SHAQ Visual Analogue Scale - Overall Disease Severity: Change from Baseline, Median: −1.500
  SHAQ Visual Analogue Scale - Overall Disease Severity: In-Clinic Visit (Day 12), Median: 1.900
Participants with SSc-RP [1]; Sensitivity Analysis (diagnosis of SSc), Modified ITT, Part A, Day 12, arms Cilnidipine 20 mg, Cilnidipine 20 mg + Tadalafil 5 mg
  SHAQ Visual Analogue Scale - Overall Disease Severity: In-Clinic Visit (Day 12), Median: 1.200
Participants with SSc-RP [1]; [5]
  VAS Overall Severity Change from Baseline Max: 0.20
  VAS Overall Severity Change from Baseline Mean: −0.900
  VAS Overall Severity Change from Baseline Median: −0.950
  VAS Overall Severity Change from Baseline Min: −1.90
  VAS Overall Severity Change from Baseline Q1: −1.700
  VAS Overall Severity Change from Baseline Q3: −0.100
  VAS Overall Severity Day 12 Max: 5.20
  VAS Overall Severity Day 12 Min: 0.00
  VAS Overall Severity Day 12 Q1: 0.100
  VAS Overall Severity Day 12 Q3: 3.550
  VAS Overall Severity Percent Change from Baseline Max: −26.8%
  VAS Overall Severity Percent Change from Baseline Mean: −56.96%
  VAS Overall Severity Percent Change from Baseline Median: −44.12%
  VAS Overall Severity Percent Change from Baseline Min: −100.0%
  VAS Overall Severity Percent Change from Baseline Q1: −100.00%
  VAS Overall Severity Percent Change from Baseline Q3: −26.76%
Participants with SSc-RP [1]; [6]
  VAS Overall Severity Change from Baseline Max: −1.50
  VAS Overall Severity Change from Baseline Mean: −1.633,
  VAS Overall Severity Change from Baseline Median: −1.600
  VAS Overall Severity Change from Baseline Min: −1.80
  VAS Overall Severity Change from Baseline Q1: −1.800
  VAS Overall Severity Change from Baseline Q3: −1.500
  VAS Overall Severity Day 12 Max: 1.40
  VAS Overall Severity Day 12 Median: 1.200
  VAS Overall Severity Day 12 Min: 0.50
  VAS Overall Severity Day 12 Q1: 0.500
  VAS Overall Severity Day 12 Q3: 1.400
  VAS Overall Severity Percent Change from Baseline Max: −51.7%
  VAS Overall Severity Percent Change from Baseline Mean: −62.64%
  VAS Overall Severity Percent Change from Baseline Median: −60.00%
  VAS Overall Severity Percent Change from Baseline Min: −76.2%
  VAS Overall Severity Percent Change from Baseline Q1: −76.19%
  VAS Overall Severity Percent Change from Baseline Q3: −51.72%
Participants with SSc-RP [2]
  Efficacy seen: overall response: shows best overall
[3]
  protein bound: 98%
